Test results from patent US12410160B2 (Gilead Sciences, Inc., priority 2021, dated 2025).
Like-named read-outs stand apart in the source and are kept apart here.

Legend:
[1] = test system: HepG2 cells; assay: F1P Cell-Based Assay (EC50), 13C6-fructose-1-phosphate in HepG2 cells (cell culture medium or 50% human plasma); settings: Homo sapiens
Protocol: F1P Cell-Based Assay (EC50)
Compounds were serially diluted (1:3) in DMSO. The LabCyte ECHO Acoustic dispenser system was used to pre-spot the assay plates (Greiner, Catalog #781091) with 400 nL (200-fold final dilution in 80 μL assay volume) of compound. 25,000 cells/well HepG2 cells (ATCC Catalog #HB-8065) were plated in a 40 μL volume/well in DMEM medium with 4.5 g/L glucose, 1× Penicillin-Streptomycin-Glutamine, and 10% FBS, using a BioTEK dispenser in a biological hood and incubated overnight at 37° C., 5% CO2, 90% humidity. 40 μL/well serum free assay medium (for F1P assay in cell culture medium), or 40 μL/well 100% human plasma (for F1P assay in 50% human plasma) were then added to the plates on the following day, and incubated for 1 hour at 37° C., 5% CO2, 90% humidity. ^13C6-labelled fructose (Sigma, Catalog #587621) in sterile PBS was added to the plates at a final concentration of 5 mM. The plates were incubated for 2 hours at 37° C., 5% CO2, 90% humidity. The assay was quenched by washing the cells with sterile PBS and adding 60 μL/well of 80% (v/v) methanol, 2 mM ammonium acetate and 2.5 μM Crotonyl-CoA, using a BioTEK washer-dispenser system. The plates were then sealed and stored in the −80° C. freezer until ready for RapidFire readout. ^13C6-fructose-1-phosphate in individual wells was quantified using the Agilent RapidFire High-Throughput MS system in negative mode using a […]. Mobile Phase 1 consisted of 20 mM ammonium acetate with 0.05% acetic acid in 100% methanol. Mobile phase 2 consisted of 5 mM octylamine in water (pH adjusted to 5 using acetic acid). F1P signals in individual wells were normalized by crotonyl CoA internal control.

[2] = biological target: human KHK-C (Homo sapiens (Human), UniProt P50053); assay: KHK Biochemical Assay (IC50), ADP-Glo, KHK-C; settings: ADP-Glo; average of at least two separate assays
Outline: (§1)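 Luminescent ADP-Glo read-out of ADP made by His-tagged KHK (BL21 (DE3) expression, Ni-NTA). Enzyme and compound sat together 30 min before ATP/fructose addition, then reacted 4 h at RT in Hepes pH 7.4 buffer with KCl, MgCl2, Triton-X. Quench 1 h, detection 1 h.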

[3] = biological target: human KHK-A (Homo sapiens (Human), UniProt P50053); assay: KHK Biochemical Assay (IC50), ADP-Glo, KHK-A; settings: ADP-Glo; average of at least two separate assays
Outline: as §1

[4] = HepG2, HepG2 cells, 50% human plasma, read-out: F1P 50% HP EC50
[5] = HepG2, read-out: F1P 10% FBS EC50, HepG2 cells, cell culture medium (10% FBS)

human KHK-C, sequence (P50053 whole entry): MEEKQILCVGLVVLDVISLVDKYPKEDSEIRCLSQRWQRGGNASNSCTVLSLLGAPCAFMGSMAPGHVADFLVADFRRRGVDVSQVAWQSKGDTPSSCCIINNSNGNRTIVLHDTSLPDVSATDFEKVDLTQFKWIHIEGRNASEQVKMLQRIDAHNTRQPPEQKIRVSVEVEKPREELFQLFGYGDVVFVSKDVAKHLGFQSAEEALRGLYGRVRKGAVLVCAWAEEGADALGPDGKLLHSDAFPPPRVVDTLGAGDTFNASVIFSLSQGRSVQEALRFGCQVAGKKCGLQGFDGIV
human KHK-A, sequence (P50053 other isoform, or with tags, fused parts or gaps): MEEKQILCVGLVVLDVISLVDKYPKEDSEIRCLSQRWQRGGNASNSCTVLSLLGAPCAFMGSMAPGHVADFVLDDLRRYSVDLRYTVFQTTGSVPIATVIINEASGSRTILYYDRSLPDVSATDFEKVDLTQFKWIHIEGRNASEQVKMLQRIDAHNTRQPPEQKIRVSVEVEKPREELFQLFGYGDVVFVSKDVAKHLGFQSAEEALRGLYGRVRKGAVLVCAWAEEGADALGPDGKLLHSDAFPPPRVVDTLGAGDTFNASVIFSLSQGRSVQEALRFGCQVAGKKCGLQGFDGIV

EC50 [1, 4] [nM] | EC50 [1, 5] [nM] | IC50 [2] [nM] | IC50 [3] [nM] | Molecule
 |  | 14.6 | 21 | C[C@H]1CCN1c1nc2c(c(-c3ccc4c(c3)C(NS(C)(=O)=O)CCO4)n1)CCC2 (stereo partly drawn) [Example 883, N-(6-(2-((S)-2-methylazetidin-1-yl)-6,7-dihydro-5H-cyclopenta[d]pyrimidin-4-yl)chroman-4-yl)methanesulfonamide]
 |  | 46.1 | 96.2 | CCC1Oc2cc(-c3nc(N4CC[C@@H]4C)nc4c3CCC4)ccc2C1NS(C)(=O)=O (stereo partly drawn) [Example 884, N-(2-ethyl-6-(2-((S)-2-methylazetidin-1-yl)-6,7-dihydro-5H-cyclopenta[d]pyrimidin-4-yl)-2,3-dihydrobenzofuran-3-yl)methanesulfonamide]
 |  | 26.1 | 150 | C[C@H]1CCN1c1nc2c(c(-c3ccc4c(c3)CC(F)C4NS(C)(=O)=O)n1)CCC2 (stereo partly drawn) [Example 885, N-(2-fluoro-5-(2-((S)-2-methylazetidin-1-yl)-6,7-dihydro-5H-cyclopenta[d]pyrimidin-4-yl)-2,3-dihydro-1H-inden-1-yl)methanesulfonamide]
 |  | 13.2 | 27.1 | C[C@@H]1Oc2cc(-c3nc(N4CC[C@@H]4C)nc4c3CCC4)ccc2[C@H]1NS(C)(=O)=O [Example 886, N-((2s,3r)-2-methyl-6-(2-((S)-2-methylazetidin-1-yl)-6,7-dihydro-5H-cyclopenta[d]pyrimidin-4-yl)-2,3-dihydrobenzofuran-3-yl)methanesulfonamide]
 |  | 10.5 | 44.4 | C[C@@H]1Oc2cc(-c3nc(N4CC[C@@H]4C)nc4c3CCC4)ccc2[C@@H]1NS(C)(=O)=O [Example 887, N-((2s,3s)-2-methyl-6-(2-((S)-2-methylazetidin-1-yl)-6,7-dihydro-5H-cyclopenta[d]pyrimidin-4-yl)-2,3-dihydrobenzofuran-3-yl)methanesulfonamide]
 |  | 4.1 | 51.3 | C[C@H]1CCN1c1nc2c(c(-c3ccc4c(c3)C(O)CC4NS(C)(=O)=O)n1)CCC2 (stereo partly drawn) [Example 888, N-(3-hydroxy-5-(2-((S)-2-methylazetidin-1-yl)-6,7-dihydro-5H-cyclopenta[d]pyrimidin-4-yl)-2,3-dihydro-1H-inden-1-yl)methanesulfonamide]
 |  | 60.8 | 141 | C[C@H]1CCN1c1nc2c(c(-c3ccc4c(c3)CCCC4NS(C)(=O)=O)n1)CCC2 (stereo partly drawn) [Example 890, N-(6-(2-((S)-2-methylazetidin-1-yl)-6,7-dihydro-5H-cyclopenta[d]pyrimidin-4-yl)-1,2,3,4-tetrahydronaphthalen-1-yl)methanesulfonamide]
 |  | 59.5 | 167 | CC1Cc2cc(-c3nc(N4CC[C@@H]4C)nc4c3CCC4)ccc2C1NS(C)(=O)=O (stereo partly drawn) [Example 891, N-(2-methyl-5-(2-((S)-2-methylazetidin-1-yl)-6,7-dihydro-5H-cyclopenta[d]pyrimidin-4-yl)-2,3-dihydro-1H-inden-1-yl)methanesulfonamide]
 |  | 99.5 | 330 | COC1Cc2cc(-c3nc(N4CC[C@@H]4C)nc4c3CCC4)ccc2C1NS(C)(=O)=O (stereo partly drawn) [Example 892, N-(2-methoxy-5-(2-((S)-2-methylazetidin-1-yl)-6,7-dihydro-5H-cyclopenta[d]pyrimidin-4-yl)-2,3-dihydro-1H-inden-1-yl)methanesulfonamide]
 |  | 733 | 1780 | C[C@H]1CCN1c1nc2c(c(-c3ccc4c(c3)CC(C(F)(F)F)C4NS(C)(=O)=O)n1)CCC2 (stereo partly drawn) [Example 893, N-(5-(2-((S)-2-methylazetidin-1-yl)-6,7-dihydro-5H-cyclopenta[d]pyrimidin-4-yl)-2-(trifluoromethyl)-2,3-dihydro-1H-inden-1-yl)methanesulfonamide]
 |  | 20.5 | 106 | CC1CC(NS(C)(=O)=O)c2ccc(-c3nc(N4CC[C@@H]4C)nc4c3CCC4)cc21 (stereo partly drawn) [Example 894, N-(3-methyl-5-(2-((S)-2-methylazetidin-1-yl)-6,7-dihydro-5H-cyclopenta[d]pyrimidin-4-yl)-2,3-dihydro-1H-inden-1-yl)methanesulfonamide]

Continued, molecule first:

Molecule | EC50 [1, 4] [nM] | EC50 [1, 5] [nM] | IC50 [2] [nM] | IC50 [3] [nM]
C[C@H]1[C@H](O)CN1c1nc(-c2ccc(OC(F)F)c(S(C)(=N)=O)c2)c2c(n1)C(F)(F)CC2 (stereo partly drawn) [Example 532] | 55.1 | 5.1 |  | 
C[C@H]1[C@H](O)CN1c1nc(-c2ccc3c(c2)OC(C(F)F)CNC3=O)c2c(n1)C(F)(F)CC2 (stereo partly drawn) [Example 597, 8-(7,7-difluoro-2-((2S,3R)-3-hydroxy-2-methylazetidin-1-yl)-6,7-dihydro-5H-cyclopenta[d]pyrimidin-4-yl)-2-(difluoromethyl)-3,4-dihydrobenzo[f][1,4]oxazepin-5(2H)-one] | 34.4 | 16 |  | 
C[C@H]1[C@H](O)CN1c1nc(-c2ccc3c(c2)C(NS(C)(=O)=O)CO3)c2c(n1)C(F)(F)CC2 (stereo partly drawn) [Example 613] | 26 | 14.5 |  | 
C[C@H]1[C@H](O)CN1c1nc(-c2cccc(-n3cnnc3)c2)c2c(n1)C(F)(F)CC2 [Example 619, (2S,3R)-1-(4-(3-(4H-1,2,4-triazol-4-yl)phenyl)-7,7-difluoro-6,7-dihydro-5H-cyclopenta[d]pyrimidin-2-yl)-2-methylazetidin-3-ol] | > 500 | 77.3 |  | 
CCS(=O)(=O)N[C@H]1COc2cc(-c3nc(N4C[C@@H](O)[C@@H]4C)nc4c3CCC4(F)F)ccc21 [Example 624, N—((R)-6-(7,7-difluoro-2-((2S,3R)-3-hydroxy-2-methylazetidin-1-yl)-6,7-dihydro-5H-cyclopenta[d]pyrimidin-4-yl)-2,3-dihydrobenzofuran-3-yl)ethanesulfonamide] | 282 | 129 |  | 
C[C@H]1CCN1c1nc2c(c(-c3cccc(S(=N)(=O)CC(=O)N4CCC4)c3)n1)CCC2 (stereo partly drawn) [Example 877, (2-(azetidin-1-yl)-2-oxoethyl)(imino)(3-(2-((S)-2-methylazetidin-1-yl)-6,7-dihydro-5H-cyclopenta[d]pyrimidin-4-yl)phenyl)-λ^6-sulfanone] |  |  | 208 | 186
C[C@H]1CCN1c1nc2c(c(-c3cccc(S(=N)(=O)c4ccccc4)c3)n1)CCC2 (stereo partly drawn) [Example 878, imino(3-(2-((S)-2-methylazetidin-1-yl)-6,7-dihydro-5H-cyclopenta[d]pyrimidin-4-yl)phenyl)(phenyl)-λ^6-sulfanone] |  |  | 86.9 | 37.8
C[C@H]1CCN1c1nc2c(c(-c3cccc(S(=N)(=O)c4ccc(C#N)cc4)c3)n1)CCC2 (stereo partly drawn) [Example 879, 4-(3-(2-((S)-2-methylazetidin-1-yl)-6,7-dihydro-5H-cyclopenta[d]pyrimidin-4-yl)phenylsulfonimidoyl)benzonitrile] |  |  | 46.7 | 41.6
COc1ccc(-c2nc(N3CC[C@@H]3C)nc3c2CCC3)cc1S(=N)(=O)CCN(C)C(C)=O (stereo partly drawn) [Example 881, N-(2-(2-methoxy-5-(2-((S)-2-methylazetidin-1-yl)-6,7-dihydro-5H-cyclopenta[d]pyrimidin-4-yl)phenylsulfonimidoyl)ethyl)-N-methylacetamide] |  |  | 70.5 | 46
Cc1cc(-c2nc(N3CC[C@@H]3C)nc3c2CCC3)cc2c1C(NS(C)(=O)=O)CO2 (stereo partly drawn) [Example 889, N-(4-methyl-6-(2-((S)-2-methylazetidin-1-yl)-6,7-dihydro-5H-cyclopenta[d]pyrimidin-4-yl)-2,3-dihydrobenzofuran-3-yl)methanesulfonamide] |  |  | 17.1 | 98.8
Cc1cc(-c2nc(N3CC[C@@H]3C)nc3c2CCC3)cc2c1C(NS(C)(=O)=O)CC2 (stereo partly drawn) [Example 895, N-(7-methyl-5-(2-((S)-2-methylazetidin-1-yl)-6,7-dihydro-5H-cyclopenta[d]pyrimidin-4-yl)-2,3-dihydro-1H-inden-1-yl)methanesulfonamide] |  |  | 38.1 | 175
NC1(c2ccc(-c3nc(N4CC[C@@H]4C(F)(F)F)nc4c3CCC4(F)F)s2)COC1 [Example 896, (R)-3-(5-(7,7-difluoro-2-(2-(trifluoromethyl)azetidin-1-yl)-6,7-dihydro-5H-cyclopenta[d]pyrimidin-4-yl)thiophen-2-yl)oxetan-3-amine] |  |  | 1.7 | 2.1
(S)-4-(2-(2-methylazetidin-1-yl)-6,7-dihydro-5H-cyclopenta[d]pyrimidin-4-yl)pyridine-2-sulfonamide [Example 224] |  |  | 114 | 155
